Experimental data reported in patent US11117899B2, “[1,2,4]triazolo[1,5-c]pyrimidine derivative as A2A receptor inhibitor” (MEDSHINE DISCOVERY INC., priority 2017, dated 2021).

These compounds were tested against T1, Human adenosine A2A receptor (Homo sapiens, UniProt P29274) (assay: Human adenosine A2A receptor calcium flux assay). Details: A2A stable CHO cell strain, antagonist mode against agonist NECA at EC80, FLIPR Fluo-4.
T1 construct: host or cells: CHO
Format: cell-based
Experimental: Human adenosine A2A receptor calcium flux assay
A2A stable cell strain was constructed by Shanghai WuXi PharmaTech, and the host cell was CHO.
Fluo-4 Direct Kit (Invitrogen, Cat. No. F10471). After the fluorescent detection reagent (specifically binding to calcium ions and causing an increase in fluorescence signal) in the kit was incubated with the cells for a suitable period of time, the compound was added to stimulate the cells to cause changes in intracellular calcium flux, thereby causing changes in the fluorescent signal, which can reflect the strength of the agonistic or inhibitory activity of the compound.
F12+10% fetal bovine serum+geneticin 300 ug/ml+blasticidin 2 ug/ml Compound dilution buffer:
Hanks Balanced Salt Buffer (Invitrogen)+20 mM HEPES, configured before each use
The test compounds were dissolved in DMSO to prepare 10 mM stock solutions. The test compounds were diluted to 0.2 mM with DMSO, and the reference compound CGS-15943 was diluted to 0.015 mM with DMSO. Next, 10 points of three-fold serial dilutions were made with ECHO. 900 nl was transferred to the compound plate (Greiner-781280), and 30 ul of compound dilution buffer was added. The final starting concentration of the test compounds was 1 uM and CGS-15943 was 0.075 uM.
Cryopreserved A2A cells were resuscitated, and then resuspended in culture medium to 1×10^6 cells/ml. The suspension was seeded into 384-well polylysine-coated cell plates (Greiner-781946) at 20 μl/well and incubated overnight in a 5% CO2 incubator at 37° C.
The cell plate prepared the day before was taken out from the incubator, and 20 ul of 2× Fluo-4 Direct™ buffer was added to each well. The plate was incubated for 50 minutes in a 5% CO2 incubator at 37° C. and allowed to stand at room temperature for 10 minutes.
Dilution of agonist NECA: 10 points of three-fold serial dilutions were made with Echo for NECA from a starting concentration of 0.15 mM. 900 nL was then transferred to the corresponding compound plate; and then 30 μl of compound dilution buffer was added to the corresponding compound plate. The final starting concentration was 750 nM.
FLIPR instrument software was run. According to the programmed procedure, 10 ul of compound dilution buffer was added to the cell plate and the fluorescence signal was read. 10 ul of the agonist reference compound at the indicated concentration was then added to the cell plate and the fluorescent signal was read. After reading, the data was exported by the “Max-Min”, “Read 90 to Maximum allowed” method in the software, and the EC80 of the A2A cell line was calculated. The agonist was prepared at a concentration of 6× EC80. A 6× EC80 concentration of a reference compound agonist of the corresponding cells was prepared with a buffer solution, and added at 30 ul/well to the corresponding compound plate for use.
FLIPR instrument software was run. According to the programmed procedure, 10 μl of the test compounds and reference compound at an indicated concentration was added to the cell plate and the fluorescence signal was read. 10 ul of the reference compound agonist at a concentration of 6× EC80 was then added to the cell plate and the fluorescent signal was read. For the agonist detection of the compounds, the data was exported by the “Max-Min”, “Read 1 to 90” method in the software. For the antagonist detection of the compound, the data was exported by the “Max-Min”, “Read 90 to Maximum allowed” method in the software. Data were analyzed by GraphPad Prism 5.0 and the IC50 values of the test compounds were calculated.

T1 sequence (P29274 whole entry): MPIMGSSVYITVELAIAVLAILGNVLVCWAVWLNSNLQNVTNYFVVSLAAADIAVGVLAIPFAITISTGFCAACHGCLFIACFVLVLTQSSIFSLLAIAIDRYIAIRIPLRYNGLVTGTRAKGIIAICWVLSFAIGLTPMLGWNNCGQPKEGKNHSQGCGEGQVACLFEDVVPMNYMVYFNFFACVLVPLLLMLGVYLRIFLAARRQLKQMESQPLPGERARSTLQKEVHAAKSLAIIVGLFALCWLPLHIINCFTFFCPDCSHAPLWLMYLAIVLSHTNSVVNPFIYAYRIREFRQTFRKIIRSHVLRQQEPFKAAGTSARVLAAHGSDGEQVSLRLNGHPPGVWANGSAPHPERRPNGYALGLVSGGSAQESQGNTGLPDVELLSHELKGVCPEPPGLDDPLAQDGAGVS

Point of comparison: `CC1C=C(c2c(-c3ccccc3)nc(N)n3ncnc23)CC(C)O1` (stereo not drawn) [Example B-24], IC50 1.18 nM. Against it:
- Cc1cc(-c2c(-c3cc(F)cc(F)c3)nc(N)n3ncnc23)cc(C(F)(F)F)n1 [Example A-5] — within 1.5-fold, 0.83 nM
- COc1ccc(-c2nc(N)n3ncnc3c2-c2cc(C)nc(C(F)(F)F)c2)cc1 [Example A-6] — within 1.5-fold, 1.04 nM
- Cc1cc(-c2c(-c3ccccn3)nc(N)n3ncnc23)cc(C(F)(F)F)n1 [Example A-7] — 4.9-fold higher, 5.83 nM
- Cc1cc(-c2c(-c3nccs3)nc(N)n3ncnc23)cc(C(F)(F)F)n1 [Example A-8] — 20-fold higher, 23.9 nM
- Cc1cc(-c2c(-c3ccc(Cl)cc3)nc(N)n3ncnc23)cc(C(F)(F)F)n1 [Example A-9] — within 1.5-fold, 1.13 nM
- Cc1cc(-c2c(-c3ccc(O)cc3)nc(N)n3ncnc23)cc(C(F)(F)F)n1 [Example A-10] — within 1.5-fold, 0.88 nM
- Cc1cc(-c2c(-c3ccncc3)nc(N)n3ncnc23)cc(C(F)(F)F)n1 [Example A-11] — 3.3-fold higher, 3.87 nM
- Cc1cc(-c2c(-c3cccnc3)nc(N)n3ncnc23)cc(C(F)(F)F)n1 [Example A-12] — 9.7-fold higher, 11.4 nM
- Cc1cc(-c2c(-c3ccc(C(F)(F)F)cc3)nc(N)n3ncnc23)cc(C(F)(F)F)n1 [Example A-13] — 12-fold higher, 13.8 nM
- Cc1cc(-c2c(-c3ccc(C#N)cc3)nc(N)n3ncnc23)cc(C(F)(F)F)n1 [Example A-14] — 3.4-fold higher, 4.07 nM
- Cc1cc(-c2c(-c3ccc(F)cc3)nc(N)n3ncnc23)cc(C(F)(F)F)n1 [Example A-15] — 3.1-fold lower, 0.38 nM
- Cc1cc(-c2c(-c3ccccc3F)nc(N)n3ncnc23)cc(C(F)(F)F)n1 [Example A-17] — within 1.5-fold, 1.3 nM
- Cc1cc(-c2c(-c3ccco3)nc(N)n3ncnc23)cc(C(F)(F)F)n1 [Example A-19] — within 1.5-fold, 1.16 nM
- Cc1cc(-c2c(-c3ccn(C)n3)nc(N)n3ncnc23)cc(C(F)(F)F)n1 [Example A-21] — within 1.5-fold, 0.9 nM
- COc1cc(F)ccc1-c1nc(N)n2ncnc2c1-c1cc(C)nc(C(F)(F)F)c1 [Example A-23] — within 1.5-fold, 1.15 nM
- COc1cc(F)ccc1-c1nc(N)n2ncnc2c1-c1cc(C)nc(C)c1 [Example A-24] — 4.2-fold higher, 4.9 nM
- Cc1cc(-c2c(-c3ccc(F)cc3F)nc(N)n3ncnc23)cc(C(F)(F)F)n1 [Example A-25] — within 1.5-fold, 1.14 nM
- Cc1cc(-c2c(-c3ccc(F)cc3F)nc(N)n3ncnc23)cc(C)n1 [Example A-26] — within 1.5-fold, 0.87 nM
- COc1ccccc1-c1nc(N)n2ncnc2c1-c1cc(C)nc(C)c1 [Example A-27] — 3.7-fold higher, 4.38 nM
- Cc1cc(-c2c(-c3ccccc3Cl)nc(N)n3ncnc23)cc(C)n1 [Example A-28] — 32-fold higher, 37.4 nM
- COc1cc(F)ccc1-c1nc(N)n2ncnc2c1-c1ccc2nn[nH]c2c1 [Example A-29] — 32-fold higher, 37.2 nM
- COc1ccccc1-c1nc(N)n2ncnc2c1-c1ccc2nn[nH]c2c1 [Example A-30] — 17-fold higher, 20.4 nM
- COc1ccccc1-c1nc(N)n2ncnc2c1-c1cc(Cl)nc(C(F)(F)F)c1 [Example A-31] — within 1.5-fold, 1.25 nM
- COc1ccc(F)cc1-c1nc(N)n2ncnc2c1-c1cc(Cl)nc(C(F)(F)F)c1 [Example A-32] — within 1.5-fold, 1.21 nM
- COc1c(F)cc(F)cc1-c1nc(N)n2ncnc2c1-c1cc(Cl)nc(C(F)(F)F)c1 [Example A-33] — 13-fold higher, 15.3 nM
- Cc1cc(-c2c(-c3ccccc3)nc(N)n3ncnc23)ccc1F [Example B-2] — 6.6-fold higher, 7.82 nM
- COc1ccc(-c2c(-c3ccccc3)nc(N)n3ncnc23)cc1Cl [Example B-3] — 8.4-fold higher, 9.92 nM
- Nc1nc(-c2ccccc2)c(-c2ccc(O)c(Cl)c2)c2ncnn12 [Example B-4] — 8.4-fold lower, 0.14 nM
- Nc1nc(-c2ccccc2)c(-c2ccc3[nH]ncc3c2)c2ncnn12 [Example B-7] — 6.9-fold lower, 0.17 nM
- Nc1nc(-c2ccccc2)c(-c2ccc3[nH]cnc3c2)c2ncnn12 [Example B-8] — 2.7-fold lower, 0.44 nM
- Nc1nc(-c2ccccc2)c(-c2ccc3c(c2)OCO3)c2ncnn12 [Example B-9] — 41-fold higher, 48 nM
- Nc1nc(-c2ccccc2)c(-c2ccc3[nH]nc(C(F)(F)F)c3c2)c2ncnn12 [Example B-10] — 1.7-fold higher, 1.98 nM
- Nc1nc(-c2ccccc2)c(-c2ccc(O)c(C(F)(F)F)c2)c2ncnn12 [Example B-13] — 1.7-fold lower, 0.71 nM
- Nc1nc(-c2ccccc2)c(-c2cc(C(F)(F)F)c3[nH]ncc3c2)c2ncnn12 [Example B-14] — 2.5-fold lower, 0.47 nM
- Nc1nc(-c2ccccc2)c(-c2cc(Cl)c(O)c(Cl)c2)c2ncnn12 [Example B-15] — 2.7-fold lower, 0.44 nM
- Nc1nc(-c2ccccc2)c(-c2ccc3ncccc3c2)c2ncnn12 [Example B-16] — 8.4-fold lower, 0.14 nM
- Nc1nc(-c2ccccc2)c(-c2ccc3c(c2)CCCN3)c2ncnn12 [Example B-17] — 1.6-fold higher, 1.89 nM
- Nc1nc(-c2ccccc2)c(-c2ccc3c(c2)CC(=O)N3)c2ncnn12 [Example B-20] — 60-fold higher, 71.3 nM
- Nc1nc(-c2ccccc2)c(-c2cc(C3CC3)nc(C(F)(F)F)c2)c2ncnn12 [Example B-23] — 43-fold higher, 50.5 nM
- Cc1cc(Cl)cc(-c2c(-c3ccccc3)nc(N)n3ncnc23)c1 [Example B-26] — 13-fold higher, 14.8 nM
- COc1cc(-c2c(-c3ccccc3)nc(N)n3ncnc23)ccn1 [Example B-27] — 4.2-fold lower, 0.28 nM
- COc1cc(-c2c(-c3ccccc3)nc(N)n3ncnc23)cc(C)n1 [Example B-29] — 11-fold lower, 0.11 nM
- CCc1cc(-c2c(-c3ccccc3)nc(N)n3ncnc23)cc(C(F)(F)F)n1 [Example B-32] — 2.4-fold higher, 2.83 nM
- Nc1nc(-c2ccccc2)c(-c2ccc3[nH]nnc3c2)c2ncnn12 [Example B-33] — 9.8-fold lower, 0.12 nM
- CC(C)c1cc(-c2c(-c3ccccc3)nc(N)n3ncnc23)cc(C(F)(F)F)n1 [Example B-34] — 16-fold higher, 19 nM
- Cc1cc(-c2c(-c3ccccc3)nc(N)n3nc(C)nc23)cc(C(F)(F)F)n1 [Example C-5] — 2.2-fold lower, 0.53 nM
- Cc1cc(-c2c(-c3ccccc3)nc(N)n3nc(C)nc23)cc(C)n1 [Example C-6] — 1.6-fold lower, 0.74 nM
- CCc1nc2c(-c3cc(C)nc(C(F)(F)F)c3)c(-c3ccccc3)nc(N)n2n1 [Example C-7] — within 1.5-fold, 1.35 nM
- CCc1nc2c(-c3cc(C)nc(C)c3)c(-c3ccccc3)nc(N)n2n1 [Example C-8] — 2.6-fold lower, 0.45 nM
- Cc1cc(-c2c(-c3ccccc3)nc(N)n3nc(CC4CC4)nc23)cc(C)n1 [Example C-9] — within 1.5-fold, 1.4 nM
- Cc1cc(-c2c(-c3ccccc3)nc(N)n3nc(C4CC4)nc23)cc(C(F)(F)F)n1 [Example C-10] — 3.1-fold higher, 3.68 nM
- Cc1cc(-c2c(-c3ccccc3)nc(N)n3nc(C4CC4)nc23)cc(C)n1 [Example C-11] — 1.5-fold lower, 0.78 nM
- Cc1cc(-c2c(-c3ccccc3)nc(N)n3nc(COCc4ccccc4)nc23)cc(C)n1 [Example C-12] — within 1.5-fold, 0.82 nM
- COCc1nc2c(-c3cc(C)nc(C(F)(F)F)c3)c(-c3ccccc3)nc(N)n2n1 [Example C-13] — within 1.5-fold, 1.02 nM
- COCc1nc2c(-c3cc(C)nc(C)c3)c(-c3ccccc3)nc(N)n2n1 [Example C-14] — 1.7-fold lower, 0.68 nM
- COc1ccccc1Cc1nc2c(-c3cc(C)nc(C(F)(F)F)c3)c(-c3ccccc3)nc(N)n2n1 [Example C-15] — 17-fold higher, 20.4 nM
- COc1ccccc1Cc1nc2c(-c3cc(C)nc(C)c3)c(-c3ccccc3)nc(N)n2n1 [Example C-16] — 1.5-fold higher, 1.77 nM
- Cc1cc(-c2c(-c3ccccc3)nc(N)n3nc(CC4CC4)nc23)cc(C(F)(F)F)n1 [Example C-17] — 8.8-fold higher, 10.4 nM
- Cc1cc(-c2c(-c3ccccc3)nc(N)n3nc(C(=O)NCc4ccc(F)cc4F)nc23)cc(C)n1 [Example C-18] — 2-fold higher, 2.39 nM
- Cc1cc(-c2c(-c3ccccc3)nc(N)n3nc(CNC4CC4)nc23)cc(C)n1 [Example C-20] — within 1.5-fold, 1.2 nM
- Cc1cc(-c2c(-c3ccccc3)nc(N)n3nc(C)nc23)cc(Cl)n1 [Example C-21] — within 1.5-fold, 0.8 nM
- Cc1nc2c(-c3ccc4[nH]nnc4c3)c(-c3ccccc3)nc(N)n2n1 [Example C-22] — 2.5-fold higher, 2.96 nM
- Nc1nc(-c2ccccc2)c(-c2ccc3[nH]nnc3c2)c2nc(COCc3ccccc3)nn12 [Example C-23] — 2.2-fold higher, 2.63 nM
- Nc1nc(-c2ccccc2)c(-c2ccc3[nH]nnc3c2)c2nc(CO)nn12 [Example C-24] — within 1.5-fold, 0.95 nM
- CCc1nc2c(-c3ccc4[nH]nnc4c3)c(-c3ccccc3)nc(N)n2n1 [Example C-25] — 2.7-fold higher, 3.16 nM
